These are literature values, as cited in US20110236881A1, “MODULATION OF INFLUENZA VIRUS” (priority 2008, published 2011).

This data set concerns the target full-length M2 (Influenza A virus, UniProt P0DOF5). The settings on record: the protein binds a single drug molecule per tetramer.

SMILES strings stand for the structures.

full-length M2, sequence (P0DOF5 whole entry): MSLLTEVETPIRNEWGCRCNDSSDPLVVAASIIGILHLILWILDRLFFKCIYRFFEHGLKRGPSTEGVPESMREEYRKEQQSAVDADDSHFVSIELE

Consider `NC12CC3CC(CC(C3)C1)C2` [amantadine], for which the “cooperativity factor of inhibition of full-length M2” value is 1.0.
